Structures can show the parent of a compound that is named as a salt. Where two headings read alike, the source gives them in different places.

The values that follow come from patent publication US5750754A, “Heterocyclic compounds” (Zeneca Limited, priority 1993, dated 1998).

The target of assay [1] is T1, human, citrated, platelet-rich plasma (Homo sapiens, UniProt P05106+P08514).
T1 construct: aggregating human, citrated, platelet-rich plasma; endogenous in cells; host or cells: human platelets in citrated platelet-rich plasma
Put plainly: Test (a): inhibition of ADP stimulated platelet aggregation (Born). The format is cell-based. The conditions noted are these: ADP induced aggregation of human platelet-rich plasma. The essentials:
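ADP added to human citrated platelet-rich plasma to build aggregation dose-response curves, repeated with increasing test compound (generally 10-^5 M to 10-^10 M). pA2 derived from the 50% response value for ADP with vs. without compound, averaged over several concentrations.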

Assay [2] concerns the target T2, purified human platelet fibrinogen receptor (GPIIb/IIIa) (Homo sapiens, UniProt P05106+P08514).
T2 construct: is isolated from human platelet lysates; from tissue
Put plainly: Test (b): GPIIb/IIIa ELISA, inhibition of biotinylated fibrinogen binding. The conditions noted are these: purified human platelet GPIIb/IIIa, ELISA. The procedure, abridged:
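GPIIb/IIIa affinity-purified from human platelet lysates was coated on plates, blocked, then incubated 2 h at 30 °C with biotinylated fibrinogen ([…]) plus compound. Bound fibrinogen detected via streptavidin/biotinylated HRP and TMB, OD at 650 nm; pIC50 for 50% binding inhibition.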
A general note: An ELISA detects its analyte on a solid surface through an enzyme-linked reagent.

Where [3] appears, read: read-out: Test (a): pA2 value indicating potency of platelet aggregation inhibition (converted).
Where [4] appears, read: read-out: Test (b): pIC50 (-log(IC50)), 50% inhibition of biotinylated fibrinogen binding to GPIIb/IIIa (converted).

T1 sequence (P08514 32-887 limits assumed): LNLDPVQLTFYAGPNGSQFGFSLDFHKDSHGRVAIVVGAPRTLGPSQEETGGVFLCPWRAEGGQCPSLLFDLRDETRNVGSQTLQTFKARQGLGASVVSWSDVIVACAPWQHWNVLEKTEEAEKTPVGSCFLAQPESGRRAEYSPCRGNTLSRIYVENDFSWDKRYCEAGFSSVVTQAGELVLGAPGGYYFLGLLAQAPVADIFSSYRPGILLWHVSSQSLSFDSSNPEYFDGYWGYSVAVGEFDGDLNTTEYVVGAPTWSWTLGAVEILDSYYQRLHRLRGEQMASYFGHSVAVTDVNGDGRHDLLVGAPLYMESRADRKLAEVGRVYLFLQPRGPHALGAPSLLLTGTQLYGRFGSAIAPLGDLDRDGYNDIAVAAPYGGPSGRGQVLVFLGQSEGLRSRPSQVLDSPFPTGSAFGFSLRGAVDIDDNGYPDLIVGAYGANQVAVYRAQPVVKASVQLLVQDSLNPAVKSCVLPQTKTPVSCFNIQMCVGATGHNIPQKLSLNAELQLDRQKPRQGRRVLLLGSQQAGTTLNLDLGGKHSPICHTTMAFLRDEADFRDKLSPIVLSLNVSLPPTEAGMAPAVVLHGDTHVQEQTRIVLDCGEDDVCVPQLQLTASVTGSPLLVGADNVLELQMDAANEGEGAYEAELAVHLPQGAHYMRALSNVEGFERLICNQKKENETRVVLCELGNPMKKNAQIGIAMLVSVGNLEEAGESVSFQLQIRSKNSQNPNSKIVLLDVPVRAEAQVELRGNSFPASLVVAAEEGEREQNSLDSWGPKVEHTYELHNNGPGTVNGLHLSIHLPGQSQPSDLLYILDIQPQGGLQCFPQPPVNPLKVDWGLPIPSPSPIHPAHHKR
T1 sequence (P08514 891-1039 limits assumed): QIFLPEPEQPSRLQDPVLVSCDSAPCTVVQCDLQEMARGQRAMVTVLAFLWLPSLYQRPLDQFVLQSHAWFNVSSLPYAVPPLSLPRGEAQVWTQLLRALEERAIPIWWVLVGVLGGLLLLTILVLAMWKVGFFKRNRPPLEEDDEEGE
T1 sequence (P05106 27-788): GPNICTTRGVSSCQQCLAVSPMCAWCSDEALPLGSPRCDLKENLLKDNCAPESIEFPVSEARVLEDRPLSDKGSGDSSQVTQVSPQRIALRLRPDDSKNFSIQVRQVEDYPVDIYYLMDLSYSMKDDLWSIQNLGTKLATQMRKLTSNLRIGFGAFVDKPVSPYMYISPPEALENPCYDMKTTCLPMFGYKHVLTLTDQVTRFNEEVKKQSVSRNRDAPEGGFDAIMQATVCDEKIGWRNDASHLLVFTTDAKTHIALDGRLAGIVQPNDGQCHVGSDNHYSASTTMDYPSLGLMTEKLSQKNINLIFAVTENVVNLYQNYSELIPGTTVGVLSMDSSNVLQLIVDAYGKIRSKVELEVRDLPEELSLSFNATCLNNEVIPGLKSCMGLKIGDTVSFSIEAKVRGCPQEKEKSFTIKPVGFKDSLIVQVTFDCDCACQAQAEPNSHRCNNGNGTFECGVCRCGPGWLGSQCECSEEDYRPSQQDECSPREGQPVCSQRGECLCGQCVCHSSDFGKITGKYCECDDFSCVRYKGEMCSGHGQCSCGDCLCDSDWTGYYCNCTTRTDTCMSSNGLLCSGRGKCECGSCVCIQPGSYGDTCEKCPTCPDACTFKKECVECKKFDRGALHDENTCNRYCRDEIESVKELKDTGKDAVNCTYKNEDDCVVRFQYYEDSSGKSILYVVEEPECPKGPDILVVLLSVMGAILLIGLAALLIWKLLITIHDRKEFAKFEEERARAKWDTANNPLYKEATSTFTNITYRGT
T2 sequence (P08514 32-887 limits assumed): as the sequence (P08514 32-887 limits assumed) above
T2 sequence (P08514 891-1039 limits assumed): as the sequence (P08514 891-1039 limits assumed) above
T2 sequence (P05106 27-788): as the sequence (P05106 27-788) above

Consider `O=C(O)CCCOc1cccc(N2CCN(c3ccncc3)CC2)c1` [Example 227, 3-[4-(4-Pyridyl)piperazin-1-yl]phenoxybutyric acid], for which the Kb in assay [1] (setting [3]) was 2510 nM. The IC50 in assay [2] (setting [4]) is 100 nM.

`O=C(O)COc1ccc2nc(N3CCN(c4ccncc4)CC3)ccc2c1` [Example 73, 2-[4-(4-Pyridyl)piperazin-1-yl]quinolin-6-yloxyacetic acid]: the Kb in assay [1] (setting [3]) is 501 nM. Further, the IC50 in assay [2] (setting [4]) was 63.1 nM.

Regarding `COC(=O)COc1ccc(C(=O)CC2CCN(c3ccncc3)CC2)cc1` [Example 173, Methyl 4-[2-[1-(4-pyridyl)piperidin-4-yl]acetyl]phenoxyacetate], the Kb in assay [1] (setting [3]) is 1260 nM. In assay [2] (setting [4]), the IC50 was 200 nM.

With `COC(=O)[C@H](Cc1ccc(OCCC2CCN(c3ccncc3)CC2)cc1)NS(=O)(=O)Cc1ccccc1` [Example 86, Methyl 2-S-(benzylsulphonylamino)-3-[4-[2-[1-(4-pyridyl)piperidin-4-yl]ethoxy]phenyl]propionate], the Kb in assay [1] (setting [3]) is 3980 nM. The IC50 in assay [2] (setting [4]) is 200 nM.

Regarding `COC(=O)COc1cc(OCC(=O)OC)cc(C(=O)CN2CCN(c3ccncc3)CC2)c1` [Example 133, Dimethyl 2,2'-[5-[2-[4-(4-pyridyl)piperazin-1-yl]acetyl]phenylene-1,3-dioxy]diacetate], the Kb in assay [1] (setting [3]) is 2000 nM. For the same compound, the IC50 in assay [2] (setting [4]) was 31600 nM.

In the case of `CN(Cc1ccc(-c2ccc(OCC(=O)O)cc2)cc1)c1ccncc1` [Example 75, 4-[4'-[N-Methyl-N-(4-pyridyl)]aminomethyl]biphenyloxyacetic acid], the Kb in assay [1] (setting [3]) was 31600 nM. Further, the IC50 in assay [2] (setting [4]) was 3980 nM.

Turning to `COC(=O)CC(C)NC(=O)c1ccc(N2CCN(c3ccncc3)CC2)cc1` (stereo not drawn) [Example 60, Methyl 3-[4-[4-(4-pyridyl)piperazin-1-yl]benzamido]butyrate], in assay [1] (setting [3]), the Kb is 10000 nM. Further, the IC50 in assay [2] (setting [4]) was 15800 nM.

`O=C(O)C1CCCN(C(=O)c2ccc(N3CCN(c4ccncc4)CC3)cc2)C1` (stereo not drawn) [Example 235, 4-[(4-Pyridyl)piperazin-1-yl]benzoylnipecotic acid]: the Kb in assay [1] (setting [3]) is 6310 nM. The IC50 in assay [2] (setting [4]) is 200 nM.

`CCCCS(=O)(=O)NC(CC1CCN(C(=O)CN2CCN(c3ccncc3)CC2)CC1)C(=O)O` (racemic) [Example 111]: the Kb in assay [1] (setting [3]) was 5010 nM. The IC50 in assay [2] (setting [4]) was 6310 nM.

With `Cc1ccc(S(=O)(=O)NCc2ccc(C(=O)CN3CCN(c4ccncc4)CC3)cc2)cc1` [Example 21, N-[4-[2-[4-(4-Pyridyl)piperazin-1-yl]acetyl]phenyl]methyl-4-methylphenylsulphonamide], in assay [1] (setting [3]), the Kb is 63.1 to 158 nM. For the same compound, the IC50 in assay [2] (setting [4]) is 158 to 501 nM.

For the compound `Cc1ccc(S(=O)(=O)NCc2ccc(CCN3CCN(c4ccncc4)CC3)cc2)cc1` [Example 186], in assay [1] (setting [3]), the Kb is 5010 nM. For the same compound, the IC50 in assay [2] (setting [4]) was 1260 nM.

Take `CN(CC(=O)O)C(=O)c1ccc(N2CCN(c3ccncc3)CC2)cc1` [Example 189, N-[4-[(4,4Pyridyl)piperazin-1-yl]benzoyl]-N-methylglycine, trifluoroacetate]: the Kb in assay [1] (Test (a): pA2 value indicating potency of platelet aggregation inhibition) was 1260 nM. Moreover, the IC50 in assay [2] (Test (b): pIC50 (-log(IC50)), 50% inhibition of biotinylated fibrinogen binding to GPIIb/IIIa) is 316 nM.

For `COC(=O)COc1ccc(OCC2CCN(c3ccncc3)CC2)cc1` [Example 157, Methyl 4-[1-(4-pyridyl)piperidin-4-yl]methoxyphenoxyacetate], the Kb in assay [1] (setting [3]) was 316 nM. The IC50 in assay [2] (setting [4]) was 79.4 nM.

For the compound `COC(=O)COc1ccc(CCN2CCN(c3ccncc3)CC2)cc1` [Example 147, Methyl 4-[2-[4-(4-pyridyl)piperazin-1-yl]ethyl]phenoxyacetate], the Kb in assay [1] (setting [3]) was 398 nM. Moreover, the IC50 in assay [2] (setting [4]) was 631 nM.

With `O=C(O)COc1ccc(C(=O)CN2CCN(c3ccncc3)CC2)c(OCC(=O)O)c1` [Example 129, 2,2'-[4-[2-[4-(4-Pyridyl)piperazin-1-yl]acetyl]phenylene-1,3-dioxy]diaceticacid, dihydrochloride], in assay [1] (setting [3]), the Kb is 12.6 nM. Also, the IC50 in assay [2] (setting [4]) is 316 nM.

For `COC(=O)C(Cc1ccc(OCc2cnccc2N(C)C)cc1)NC(=O)OCc1ccccc1` (stereo not drawn) [Example 114, Methyl3-(4-dimethylamninopyrid-3-yl)methoxyphenoxyl-2-benzyloxycarbonylaminopropanoate], the Kb in assay [1] (setting [3]) is over 100000 nM. Moreover, in assay [2] (setting [4]), the IC50 is 2510 nM.

Consider `CCOC(=O)Cc1ccc(C(=O)CN2CCN(c3ccncc3)CC2)cc1` [Example 14, Ethyl 4-[2-[4-(4-pyridyl)piperazin-1-yl]acetyl]phenylacetate], for which the Kb in assay [1] (setting [3]) was 7940 nM. Also, in assay [2] (setting [4]), the IC50 was over 100000 nM.

`COCCNC(=O)COC1CCN(C(=O)CN2CCN(c3ccncc3)CC2)CC1` [Example 107, N-2-Methoxyethyl 1-[2-[4-(4-pyridyl)piperazin-1-yl]acetyl]-piperidin-4-yloxyacetamide]: in assay [1] (setting [3]), the Kb was 31600 nM. Besides, the IC50 in assay [2] (setting [4]) was over 100000 nM.

In the case of `Cc1ccc(S(=O)(=O)NCCc2ccc(C(=O)CN3CCN(c4ccncc4)CC3)cc2)cc1` [Example 23, N-[2-[4-[2-[4-(4-Pyridyl)piperazin-1-yl]acetyl]phenyl]ethyl]-4-methylphenylsulphonamide], in assay [1] (setting [3]), the Kb was 1000 nM. Moreover, the IC50 in assay [2] (setting [4]) was 6310 to 31600 nM.

Turning to `CCCCS(=O)(=O)NC(Cc1ccc(C(=O)CN2CCN(c3ccncc3)CC2)cc1)C(=O)OC` (racemic) [Example 66, Methyl 2-RS-(n-butylsulphonylamino)-3-[4-[2-[4-(4-pyridyl)piperazin-1-yl]acetyl]phenyl]propionate], in assay [1] (setting [3]), the Kb is 2000 nM. Also, in assay [2] (setting [4]), the IC50 was 251 nM.

For `Cc1ccc(S(=O)(=O)NCCC2CCN(C(=O)CN3CCN(c4ccncc4)CC3)CC2)cc1` [Example 223, N-[2-[1-[2-[4-(4-pyridyl)piperazin-1-yl]acetyl]piperidin-4-ylethyl]-4-methylphenylsulphonamide, dihydrochloride], in assay [1] (setting [3]), the Kb was 1000 nM. Also, the IC50 in assay [2] (setting [4]) was 1580 nM.

On to `COC(=O)COc1ccc(OC2CCN(c3ccncc3)CC2)cc1` [Example 155, Methyl 4-[1-(4-pyridyl)piperidin-4-yl]oxyphenoxyacetate], for which, in assay [1] (setting [3]), the Kb was 3160 nM. In assay [2] (setting [4]), the IC50 is over 100000 nM.

For the compound `O=C(O)COc1ccc(C(=O)CCN2CCN(c3ccncc3)CC2)cc1` [Example 8, 4-[3-[4-(4-Pyridyl)piperazin-1-yl]propanoyl]phenoxyacetic acid], the Kb in assay [1] (setting [3]) is 316 nM. The IC50 in assay [2] (setting [4]) is 79.4 nM.

`COC(=O)CNc1ccc(OC(=O)CC2CCN(c3ccncc3)CC2)cc1` [Example 172, 4-Methyloxycarbonylmethylamiophenyl [1-(4-pyridyl)piperidin4-yl]acetate]: the Kb in assay [1] (setting [3]) is 6310 nM. Also, in assay [2] (setting [4]), the IC50 was 50100 nM.

Turning to `CS(=O)(=O)N[C@@H](Cc1ccc(OCCC2CCN(c3ccncc3)CC2)cc1)C(=O)O` [Example 88, 2-S-(Methylsulphonylamino)-3-[4-[2-[1-(4-pyridyl)piperidin-4-yl]ethoxy]phenyl]propionic acid], the Kb in assay [1] (setting [3]) is 1 nM. Also, the IC50 in assay [2] (setting [4]) was 2.51 nM.

In the case of `COC(=O)COc1ccc(C(=O)CN2CCN(c3cc(C)nc4ccccc34)CC2)cc1` [Example 41, Methyl 4-[2-[4-(2-methyl-4-quinolinyl)piperazin-1-yl]acetyl]phenoxyacetate], the Kb in assay [1] (setting [3]) was over 100000 nM. For the same compound, the IC50 in assay [2] (setting [4]) was over 100000 nM.

On to `COC(=O)CCCCc1ccc(CN2CCN(c3ccncc3)CC2)cc1` [Example 179, Methyl 5-[4-[4-(4-pyridyl)piperazin-1-yl]methylphenyl]pentanoate], for which the Kb in assay [1] (setting [3]) is 15800 nM. The IC50 in assay [2] (setting [4]) is 3980 nM.
